Measurements reported in EP3057950B1, “PHENYL LINKED QUINOLINYL MODULATORS OF ROR-GAMMA-T” (Janssen Pharmaceutica NV, priority 2013, dated 2015).
Where a name gives a salt, the structure may show the parent alone.

Experiments:
[1] = target: T1, wild type human RORγt ligand binding domain (RORγt LBD) (Homo sapiens, UniProt P51449); experiment: RORγt ThermoFluor® Assay (thermal shift, binding affinity); conditions: pH 7.0, estimated from concentration response curves
T1 construct: His-tag (N); TurboTEV protease cleavage site (ENLYFQG) (N); made in house; host or cells: E. coli (pHIS1, modified pET expression vector)
T1 sequence (P51449 269-508 limits assumed): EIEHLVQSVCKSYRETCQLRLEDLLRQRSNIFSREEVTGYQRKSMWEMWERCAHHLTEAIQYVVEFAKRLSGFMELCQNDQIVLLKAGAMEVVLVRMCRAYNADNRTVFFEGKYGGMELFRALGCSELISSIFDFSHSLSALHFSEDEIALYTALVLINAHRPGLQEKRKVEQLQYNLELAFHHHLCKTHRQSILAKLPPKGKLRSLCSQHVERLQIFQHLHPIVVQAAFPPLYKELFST
Experimental: This approach is applicable to a wide variety of systems, and rigorous in theoretical interpretation through quantitation of equilibrium binding constants (KD).
The shift in the melting point described as a ΔTm is proportional to the concentration and affinity of the ligand.
Protein and compound solutions are dispensed into black 384-well polypropylene PCR microplates (Abgene) and overlayed with silicone oil (1 µL, Fluka, type DC 200) to prevent evaporation.
Bar-coded assay plates are robotically loaded onto a thermostatically controlled PCR-type thermal block and then heated at a typical ramp-rate of 1 °C/min for all experiments. Fluorescence was measured by continuous illumination with UV light (Hamamatsu LC6) supplied via fiber optic and filtered through a band-pass filter (380-400 nm; >6 OD cutoff). Fluorescence emission of the entire 384-well plate was detected by measuring light intensity using a CCD camera (Sensys, Roper Scientific) filtered to detect 500 ± 25 nm, resulting in simultaneous and independent readings of all 384 wells. Images were collected at each temperature, and the sum of the pixel intensity in a given area of the assay plate was recorded versus temperature. Reference wells contained RORγt without compounds, and the assay conditions were as follows: • 0.065 mg/mL RORγt • 60 µM 1,8-ANS • 100 mM Hepes, pH 7.0 • 10 mM NaCl • 2.5 mM GSH • 0.002% Tween-20
Project compounds were arranged in a pre-dosed mother plate (Greiner Bio-one) wherein compounds are serially diluted in 100% DMSO by 1:2 from a high concentration of 10 mM over 12 columns within a series (column 12 is a reference well containing DMSO, no compound). The compounds were robotically dispensed directly into assay plates (1x = 46 nL) using a Hummingbird capillary liquid handling instrument (Digilab). Following compound dispense, protein and dye in buffer was added to achieve the final assay volume of 3 µL, followed by 1 µL of silicone oil.

[2] = target: T2, wild type human RORγt LBD (Homo sapiens, UniProt P51449); experiment: RORγt Reporter Assay (GAL4-RORγt LBD luciferase in HEK293T cells); assay type: cell-based; conditions: HEK293T cells; for IC50: compounds for 24 hours, read-out: RORγt reporter Assay, IC50; for inhibition at 6 µM: HEK-293T, read-out: RORγt reporter Assay, % inhibition @ 6 µM, @ 6 µM
T2 construct: expressed in transfected cells; host or cells: HEK293T
T2 sequence (P51449 269-508 limits assumed): T1 sequence (P51449 269-508 limits assumed)
Description: A reporter assay was used to test functional activity of RORγt modulatory compounds on transcriptional activation driven by the RORγt LBD. Cells used in the assay were co-transfected with two constructs. The first construct, pBIND-RORγt LBD, contained the wild type human RORγt LBD fused to the DNA binding domain of the GAL4 protein. The second construct, pGL4.31 (Promega Cat no. C935A), contained multiple GAL4 responsive DNA elements upstream of firefly luciferase. […] The mutant construct was called pBIND-RORγt-AF2.
The pBIND vector contains the GAL4 DNA Binding Domain (GAL4 DBD) and the renilla luciferase gene under control of the SV40 promoter. Renilla luciferase expression serves as a control for transfection efficiency and cell viability.
The reporter assay was performed by transiently transfecting HEK293T cells with 5 µg of pBIND-RORγt LBD or pBIND-RORγt LBD-AF2 and 5 µg pGL4.31 (Promega Cat no. C935A) using Fugene 6 (Invitrogen Cat no. E2691) at a 1:6 ratio of DNA: Fugene 6 in a T-75 flask in which cells were at least 80% confluent. Twenty four hours after bulk transfection, cells were plated into 96-well plates at 50,000 cells/well in phenol-red free DMEM containing 5% Lipid Reduced FCS and Pen/Strep. Six hours after plating, cells were treated with compounds for 24 hours. Media was removed and cells were lysed with 50 µL 1x Glo Lysis Buffer (Promega). Dual Glo Luciferase Reagent (50 µL/well) was then added and firefly luciferase luminescence was read on an Envision after a ten minute incubation. Finally, Stop and Glo reagent (50 µL/well) was added and renilla luciferase luminescence was read on an Envision instrument after a ten minute incubation. To calculate the effect of compounds on RORγt activity, the ratio of firefly to renilla luciferase was determined and plotted against compound concentration. Agonist compounds increase RORγt-driven luciferase expression, and antagonist or inverse agonist compounds decrease luciferase expression.

Row | SMILES | Kd [1] [nM] | IC50 [2] [nM] | inhibition at 6 µM [2] [%] | RORγt reporter Assay, % inhibition @ 6 µM [2] [%]
1 | CON(C)c1nc2ccc(C(O)(c3ccc(C(F)(F)F)nc3)c3cncn3C)cc2c(N(C)OC)c1-c1ccccc1 (stereo not drawn) [Example 57, {2,4-Bis[methoxy(methyl)amino]-3-phenylquinolin-6-yl}(1-methyl-1H-imidazol-5-yl)[6-(trifluoromethyl)pyridin-3-yl]methanol] | 580 | 690 | 100 | 
2 | Cn1cncc1C(O)(c1ccc(Cl)cc1)c1ccc2nc(Cl)c(-c3ccccn3)c(Cl)c2c1 (stereo not drawn) [Example 5, (4-Chlorophenyl)(2,4-dichloro-3-(pyridin-2-yl)quinolin-6-yl)(1-methyl-1H-imidazol-5-yl)methanol•TFA] | 620 | 1700 | 87 | 
3 | Cn1cncc1C(O)(c1ccc(Cl)cc1)c1ccc2nc(OCC(F)(F)F)c(-c3ccccc3)c(Cl)c2c1 (stereo not drawn) [Example 45, (4-Chlorophenyl)[4-chloro-3-phenyl-2-(2,2,2-trifluoroethoxy)quinolin-6-yl](1-methyl-1H-imidazol-5-yl)methanol•TFA] | 770 | 570 | 93 | 
4 | OC(c1cccnc1)(c1ccc2nc(Cl)c(-c3ccccc3)c(Cl)c2c1)C1CCNCC1 (stereo not drawn) [Example 91, (2,4-Dichloro-3-phenylquinolin-6-yl)(piperidin-4-yl)(pyridin-3-yl)methanol•TFA] | 21000 | > 6000 | 0 | 
5 | CN(CCO)c1nc2ccc(C(O)(c3ccc(Cl)cc3)c3cncn3C)cc2c(Cl)c1-c1ccccc1 (stereo not drawn) [Example 46, 2-[{4-Chloro-6-[(4-chlorophenyl)(hydroxy)(1-methyl-1H-imidazol-5-yl)methyl]-3-phenylquinolin-2-yl}(methyl)amino]ethanol•TFA] | 230 | 830 | 106 | 
6 | Cn1cncc1C(O)(c1ccc(C(F)(F)F)nc1)c1ccc2nc(OCC(F)(F)F)c(-c3ccccc3)c(Cl)c2c1 (stereo not drawn) [Example 54, [4-Chloro-3-phenyl-2-(2,2,2-trifluoroethoxy)quinolin-6-yl](1-methyl-1H-imidazol-5-yl)[6-(trifluoromethyl)pyridin-3-yl]methanol] | 380 | 440 | 102 | 
7 | OC(c1cccc(Cl)c1)(c1ccnc(C(F)(F)F)c1)c1ccc2nc(Cl)c(-c3ccccc3)c(Cl)c2c1 (stereo not drawn) [Example 77, (3-Chlorophenyl)(2,4-dichloro-3-phenylquinolin-6-yl)(2-(trifluoromethyl)pyridin-4-yl)methanol] | 12000 | > 6000 | 48 | 
8 | COc1nc2ccc(C(O)(c3sc(C)nc3C)c3cncn3C)cc2c(Cl)c1-c1ccccc1 (stereo not drawn) [Example 37, (4-Chloro-2-methoxy-3-phenylquinolin-6-yl)(2,4-dimethylthiazol-5-yl)(1-methyl-1H-imidazol-5-yl)methanol•TFA] | 7.2 | 260 | 90 | 
9 | Cn1cncc1C(c1ccc(Cl)cc1)c1ccc2nc(C#N)c(-c3ccccc3)c(Cl)c2c1 (stereo not drawn) [Example 72, 4-Chloro-6-((4-chlorophenyl)(1-methyl-1H-imidazol-5-yl)methyl)-3-phenylquinoline-2-carbonitrile•TFA] | 890 | 630 | 100 | 
10 | CC(=O)N1CCC(C(O)(c2cccnc2)c2ccc3nc(C(F)(F)F)c(-c4ccccc4)c(Cl)c3c2)CC1 (stereo not drawn) [Example 29, 1-(4-((4-Chloro-3-phenyl-2-(trifluoromethyl)quinolin-6-yl)(hydroxy)(pyridin-3-yl)methyl)piperidin-1-yl)ethanone•TFA] | 26 | 85 | 97 | 
11 | CN(C)c1c(-c2ccccc2)c(Cl)nc2ccc(C(O)(c3ccccn3)c3cncn3C)cc12 (stereo not drawn) [Example 85, (2-Chloro-4-(dimethylamino)-3-phenylquinolin-6-yl)(1-methyl-1H-imidazol-5-yl)(pyridin-2-yl)methanol•TFA] | 20000 | 3500 | 81 | 
12 | CON(C)c1nc2ccc(C(O)(c3ccc(Cl)cc3)c3cncn3C)cc2c(Cl)c1-c1ccccc1 (stereo not drawn) [Example 58, {4-Chloro-2-[methoxy(methyl)amino]-3-phenylquinolin-6-yl}(4-chlorophenyl)(1-methyl-1H-imidazol-5-yl)methanol] | 220 | 150 | 99 | 
13 | COc1ncc(-c2c(OC)nc3ccc(C(O)(c4ccc(C(F)(F)F)nc4)c4cncn4C)cc3c2Cl)cn1 (stereo not drawn) [Example 15, [4-Chloro-2-methoxy-3-(2-methoxypyrimidin-5-yl)quinolin-6-yl](1-methyl-1H-imidazol-5-yl)[6-(trifluoromethyl)pyridin-3-yl]methanol•TFA] | 21 | > 6000 | -29 | 

Other lines, results leading:

Row | Kd [1] [nM] | IC50 [2] [nM] | inhibition at 6 µM [2] [%] | RORγt reporter Assay, % inhibition @ 6 µM [2] [%] | SMILES
14 | 13000 | ~4000 |  | 64 | COc1c(-c2ccccc2)c(C(F)(F)F)nc2ccc(C(O)(c3ccc(Cl)cc3)c3cncn3C)cc12 (single isomer, unassigned) [Example 33b, (4-Chlorophenyl)(4-methoxy-3-phenyl-2-(trifluoromethyl)quinolin-6-yl)(1-methyl-1H-imidazol-5-yl)methanol]
15 | 15000 | ~4000 |  | 60 | Cc1cc(C(O)(c2ccc(Cl)cc2)c2cncn2C)cc2c(C#N)c(-c3ccccc3)c(C#N)nc12 (single isomer, unassigned) [Example 23b, 6-((4-Chlorophenyl)(hydroxy)(1-methyl-1H-imidazol-5-yl)methyl)-8-methyl-3-phenylquinoline-2,4-dicarbonitrile]
16 | 900 | ~2000 | 87 |  | COc1nc2ccc(C(O)(c3ncccn3)c3cncn3C)cc2c(Cl)c1-c1ccccc1 (single isomer, unassigned) [Example 60b, (4-Chloro-2-methoxy-3-phenylquinolin-6-yl)(1-methyl-1H-imidazol-5-yl)pyrimidin-2-ylmethanol]
17 | 770 | 1200 | 92 |  | COc1c(-c2ccccc2)c(C(F)(F)F)nc2ccc(C(O)(c3ccccn3)c3cncn3C)cc12 (single isomer, unassigned) [Example 32b, (4-Methoxy-3-phenyl-2-(trifluoromethyl)quinolin-6-yl)(1-methyl-1H-imidazol-5-yl)(pyridin-2-yl)methanol]
18 | 8.3 | 40 | 98 |  | Cc1nc(C)c(C(O)(c2ccc3nc(C#N)c(-c4ccccc4)c(C#N)c3c2)c2cnnn2C)s1 (stereo not drawn) [Example 47a, 6-((2,4-Dimethylthiazol-5-yl)(hydroxy)(1-methyl-1H-1,2,3-triazol-5-yl)methyl)-3-phenylquinoline-2,4-dicarbonitrile]
